Legend:
[1] = biological target: T1, Flavodoxin (Collinsella aerofaciens, UniProt A4ED08); assay: (§1) The drug is tested on Collinsella aerofaciens strain: ATCC25986 for biotransformation. The drug concentrations were measured before and after a 12-h incubation by liquid-chromatography-coupled mass spectrometry (LC–MS); format: ADME; design: dose 2 uM; conditions: 2 µM
T1 sequence (A4ED08 whole entry): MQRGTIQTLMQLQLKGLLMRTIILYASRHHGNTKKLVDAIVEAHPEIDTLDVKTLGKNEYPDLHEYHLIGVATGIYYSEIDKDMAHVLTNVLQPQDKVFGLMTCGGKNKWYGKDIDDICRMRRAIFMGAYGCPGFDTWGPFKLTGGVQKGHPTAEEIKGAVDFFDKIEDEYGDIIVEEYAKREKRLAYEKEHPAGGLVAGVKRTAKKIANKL

[2] = biological target: T2, Diguanylate cyclase (Collinsella aerofaciens, UniProt A4EB91); assay: as §1; format: ADME; design: dose 2 uM; conditions: 2 µM
T2 sequence (A4EB91 whole entry): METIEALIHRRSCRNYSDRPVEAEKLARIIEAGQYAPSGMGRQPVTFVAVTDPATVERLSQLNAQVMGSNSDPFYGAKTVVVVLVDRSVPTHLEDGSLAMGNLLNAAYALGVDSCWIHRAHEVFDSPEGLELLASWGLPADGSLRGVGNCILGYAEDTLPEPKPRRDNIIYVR

[3] = biological target: T3, Pyridine nucleotide-disulfide oxidoreductase (Collinsella aerofaciens, UniProt A4EBM5); assay: as §1; format: ADME; design: dose 2 uM; conditions: 2 µM
T3 sequence (A4EBM5 whole entry): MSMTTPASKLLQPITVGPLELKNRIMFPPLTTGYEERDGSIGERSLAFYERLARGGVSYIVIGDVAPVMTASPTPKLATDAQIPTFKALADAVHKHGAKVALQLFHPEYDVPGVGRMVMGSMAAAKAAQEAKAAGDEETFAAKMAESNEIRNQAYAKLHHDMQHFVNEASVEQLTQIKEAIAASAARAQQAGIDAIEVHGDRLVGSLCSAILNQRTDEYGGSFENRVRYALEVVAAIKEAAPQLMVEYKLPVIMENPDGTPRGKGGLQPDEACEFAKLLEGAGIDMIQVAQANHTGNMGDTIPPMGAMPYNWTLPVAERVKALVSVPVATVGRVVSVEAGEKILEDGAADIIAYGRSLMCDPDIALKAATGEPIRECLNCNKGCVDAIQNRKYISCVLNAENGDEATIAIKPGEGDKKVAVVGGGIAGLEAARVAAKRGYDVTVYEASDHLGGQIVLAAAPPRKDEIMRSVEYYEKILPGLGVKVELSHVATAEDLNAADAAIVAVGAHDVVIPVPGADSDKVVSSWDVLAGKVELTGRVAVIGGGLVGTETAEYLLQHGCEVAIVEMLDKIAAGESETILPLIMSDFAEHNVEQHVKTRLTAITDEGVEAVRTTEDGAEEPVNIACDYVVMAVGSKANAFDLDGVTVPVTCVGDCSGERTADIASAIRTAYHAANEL

[4] = biological target: T4, Acetyl esterase (Acetylxylosidase) (Bacteroides thetaiotaomicron, UniProt Q8ABF8); assay: (§2) The drug is tested on Bacteroides thetaiotaomicron strain: VPI-5482 for biotransformation. The drug concentrations were measured before and after a 12-h incubation by liquid-chromatography-coupled mass spectrometry (LC–MS); format: ADME; design: dose 2 uM; conditions: 2 µM
T4 sequence (Q8ABF8 whole entry): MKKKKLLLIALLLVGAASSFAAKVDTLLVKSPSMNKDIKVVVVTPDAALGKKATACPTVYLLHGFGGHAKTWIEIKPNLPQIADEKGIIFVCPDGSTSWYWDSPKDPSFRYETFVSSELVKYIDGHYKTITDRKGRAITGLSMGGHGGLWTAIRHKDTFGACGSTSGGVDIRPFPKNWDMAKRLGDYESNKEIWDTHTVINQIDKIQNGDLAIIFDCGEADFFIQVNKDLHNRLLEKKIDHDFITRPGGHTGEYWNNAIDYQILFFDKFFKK

[5] = biological target: T5, Lipolytic enzyme, G-D-S-L family (Bacteroides thetaiotaomicron, UniProt Q8A0C5); assay: as §2; format: ADME; design: dose 2 uM; conditions: 2 µM
T5 sequence (Q8A0C5 whole entry): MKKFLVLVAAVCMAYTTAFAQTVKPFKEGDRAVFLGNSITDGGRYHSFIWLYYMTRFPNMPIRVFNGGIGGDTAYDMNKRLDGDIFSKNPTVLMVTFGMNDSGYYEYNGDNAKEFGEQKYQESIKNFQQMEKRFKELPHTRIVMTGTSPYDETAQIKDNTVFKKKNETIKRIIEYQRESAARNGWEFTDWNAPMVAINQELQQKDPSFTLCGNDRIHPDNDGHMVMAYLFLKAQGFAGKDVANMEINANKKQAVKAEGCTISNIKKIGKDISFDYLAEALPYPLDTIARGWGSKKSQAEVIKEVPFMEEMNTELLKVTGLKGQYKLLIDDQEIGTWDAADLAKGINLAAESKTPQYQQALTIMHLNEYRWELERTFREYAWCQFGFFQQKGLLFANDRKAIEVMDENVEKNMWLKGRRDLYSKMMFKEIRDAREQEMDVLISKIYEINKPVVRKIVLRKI

[6] = biological target: T6, Acylhydrolase (Bacteroides thetaiotaomicron, UniProt Q8AA96); assay: as §2; format: ADME; design: dose 2 uM; conditions: 2 µM
T6 sequence (Q8AA96 whole entry): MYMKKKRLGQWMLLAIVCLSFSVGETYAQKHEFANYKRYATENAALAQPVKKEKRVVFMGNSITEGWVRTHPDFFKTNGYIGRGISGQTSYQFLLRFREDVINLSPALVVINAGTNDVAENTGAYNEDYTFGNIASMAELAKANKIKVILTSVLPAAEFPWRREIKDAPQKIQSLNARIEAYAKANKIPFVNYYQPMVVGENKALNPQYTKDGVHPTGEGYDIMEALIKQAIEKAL

[7] = biological target: T7, Lipoprotein (Bacteroides thetaiotaomicron, UniProt Q8A343); assay: as §2; format: ADME; design: dose 2 uM; conditions: 2 µM
T7 sequence (Q8A343 whole entry): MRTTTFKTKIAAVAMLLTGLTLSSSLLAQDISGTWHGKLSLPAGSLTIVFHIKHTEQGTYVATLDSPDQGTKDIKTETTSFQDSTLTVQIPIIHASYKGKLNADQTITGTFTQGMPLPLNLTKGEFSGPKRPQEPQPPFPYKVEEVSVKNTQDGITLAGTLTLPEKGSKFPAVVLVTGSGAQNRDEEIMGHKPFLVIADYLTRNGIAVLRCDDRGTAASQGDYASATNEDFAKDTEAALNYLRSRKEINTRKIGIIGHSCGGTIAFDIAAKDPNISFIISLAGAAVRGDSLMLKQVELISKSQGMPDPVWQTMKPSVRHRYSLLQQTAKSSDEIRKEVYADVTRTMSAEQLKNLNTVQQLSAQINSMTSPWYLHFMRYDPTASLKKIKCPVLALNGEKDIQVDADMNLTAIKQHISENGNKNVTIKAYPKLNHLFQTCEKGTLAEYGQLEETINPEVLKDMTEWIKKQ

[8] = biological target: T8, NADH dehydrogenase/NAD(P)H nitroreductase (Bacteroides thetaiotaomicron, UniProt Q8A8L9); assay: as §2; format: ADME; design: dose 2 uM; conditions: 2 µM
T8 sequence (Q8A8L9 whole entry): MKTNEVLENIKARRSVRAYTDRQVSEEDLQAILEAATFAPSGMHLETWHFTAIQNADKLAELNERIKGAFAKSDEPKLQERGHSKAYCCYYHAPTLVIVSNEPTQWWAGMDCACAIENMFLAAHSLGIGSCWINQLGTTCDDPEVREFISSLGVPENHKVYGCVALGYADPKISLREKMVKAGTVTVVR

[9] = The drug is tested on Clostridium spiroforme strain: DSM1552 for biotransformation. The drug concentrations were measured before and after a 12-h incubation by liquid-chromatography-coupled mass spectrometry (LC–MS); conditions: thomasclavelia spiroformis, 2 µM

| Compound | Bacterial Biotransformation [1] | Bacterial Biotransformation [2] | Bacterial Biotransformation [3] | Bacterial Biotransformation [4] | Bacterial Biotransformation [5] | Bacterial Biotransformation [6] | Bacterial Biotransformation [7] | Bacterial Biotransformation [8] | Bacterial Biotransformation [9] |
| --- | --- | --- | --- | --- | --- | --- | --- | --- | --- |
| CC(=O)OCC(=O)[C@@]1(OC(C)=O)[C@@H](C)C[C@H]2[C@@H]3C[C@H](F)C4=CC(=O)C=C[C@]4(C)[C@@]3(F)[C@@H](O)C[C@@]21C [DIFLORASONE DIACETATE] | Compound NOT metabolized | Compound NOT metabolized | Compound NOT metabolized | Compound NOT metabolized | Compound metabolized | Compound metabolized | Compound NOT metabolized | Compound NOT metabolized |  |
| O=C(CCCN1CCC(O)(c2ccc(Cl)cc2)CC1)c1ccc(F)cc1 [HALOPERIDOL] |  |  |  |  |  |  |  |  | Compound NOT metabolized |
| COc1ccc([C@@H]2Sc3ccccc3N(CCN(C)C)C(=O)[C@@H]2OC(C)=O)cc1 [DILTIAZEM] | Compound NOT metabolized | Compound NOT metabolized | Compound NOT metabolized | Compound NOT metabolized | Compound metabolized | Compound NOT metabolized | Compound NOT metabolized | Compound NOT metabolized |  |
| CC1Cc2ccccc2N1NC(=O)c1ccc(Cl)c(S(N)(=O)=O)c1 (stereo not given) [INDAPAMIDE] |  |  |  |  |  |  |  |  | Compound NOT metabolized |
| Cc1ccc(NC(=O)c2ccc(CN3CCN(C)CC3)cc2)cc1Nc1nccc(-c2cccnc2)n1 [IMATINIB] |  |  |  |  |  |  |  |  | Compound NOT metabolized |
| CC(=O)OCC(CCn1cnc2cnc(N)nc21)COC(C)=O [FAMCICLOVIR] | Compound NOT metabolized | Compound NOT metabolized | Compound NOT metabolized | Compound metabolized | Compound metabolized | Compound metabolized | Compound NOT metabolized | Compound NOT metabolized |  |
| CNCC[C@H](Oc1cccc2ccccc12)c1cccs1 [DULOXETINE] |  |  |  |  |  |  |  |  | Compound NOT metabolized |

The remaining lines, values ahead:

| Bacterial Biotransformation [1] | Bacterial Biotransformation [2] | Bacterial Biotransformation [3] | Bacterial Biotransformation [4] | Bacterial Biotransformation [5] | Bacterial Biotransformation [6] | Bacterial Biotransformation [7] | Bacterial Biotransformation [8] | Bacterial Biotransformation [9] | Compound |
| --- | --- | --- | --- | --- | --- | --- | --- | --- | --- |
| Compound NOT metabolized | Compound NOT metabolized | Compound NOT metabolized | Compound NOT metabolized | Compound NOT metabolized | Compound NOT metabolized | Compound NOT metabolized | Compound NOT metabolized |  | C#C[C@]1(OC(C)=O)CC[C@H]2[C@@H]3CCC4=CC(=O)CC[C@@H]4[C@H]3CC[C@@]21C [NORETHINDRONE ACETATE] |
|  |  |  |  |  |  |  |  | Compound NOT metabolized | C#C[C@]1(OC(C)=O)CC[C@H]2[C@@H]3CCC4=C/C(=N/O)CC[C@@H]4[C@H]3CC[C@@]21CC [NORGESTIMATE] |
| Compound NOT metabolized | Compound NOT metabolized | Compound NOT metabolized | Compound NOT metabolized | Compound NOT metabolized | Compound NOT metabolized | Compound NOT metabolized | Compound NOT metabolized |  | C#C[C@]1(O)CC[C@H]2[C@@H]3CCC4=CC(=O)CC[C@@H]4[C@H]3CC[C@@]21CC [LEVONORGESTREL] |
| Compound NOT metabolized | Compound NOT metabolized | Compound NOT metabolized | Compound NOT metabolized | Compound NOT metabolized | Compound NOT metabolized | Compound NOT metabolized | Compound NOT metabolized |  | N#Cc1ccc2c(c1)N(CCCN1CCC(O)CC1)c1ccccc1S2 [PERICIAZINE] |
|  |  |  |  |  |  |  |  | Compound NOT metabolized | COc1ccc2cc([C@H](C)C(=O)O)ccc2c1 [NAPROXEN] |
|  |  |  |  |  |  |  |  | Compound NOT metabolized | COC(=O)Nc1nc2ccc(C(=O)c3ccccc3)cc2[nH]1 [MEBENDAZOLE] |
